{"source": "ChEMBL document CHEMBL4325924", "about": "“Discovery of Orally Bioavailable and Liver-Targeted Hypoxia-Inducible Factor Prolyl Hydroxylase (HIF-PHD) Inhibitors for the Treatment of Anemia” (ACS Med Chem Lett, 2018)", "key": {"[1]": {"test": "Plasma clearance in Wistar Han rat at 1 mg/kg, iv or 2 mg/kg, po administered via gavage by LC-MS/MS analysis", "type": "ADME, organism-based"}, "[2]": {"test": "Volume of distribution in Wistar Han rat at 1 mg/kg, iv or 2 mg/kg, po administered via gavage by LC-MS/MS analysis", "type": "ADME, organism-based", "details": "in vivo"}, "[3]": {"test": "Half life in Wistar Han rat at 1 mg/kg, iv or 2 mg/kg, po administered via gavage by LC-MS/MS analysis", "type": "ADME, organism-based", "details": "in vivo"}, "[4]": {"test": "Oral bioavailability in Wistar Han rat at 2 mg/kg administered via gavage by LC-MS/MS analysis", "type": "ADME, organism-based", "details": "in vivo"}, "[5]": {"test": "Plasma clearance in Beagle dog at 0.175 mg/kg, iv or 1 mg/kg, po administered via gavage by LC-MS/MS analysis", "type": "ADME, organism-based, Canis lupus familiaris"}, "[6]": {"test": "Volume of distribution in Beagle dog at 0.175 mg/kg, iv or 1 mg/kg, po administered via gavage by LC-MS/MS analysis", "type": "ADME, organism-based, Canis lupus familiaris", "details": "in vivo"}, "[7]": {"test": "Half life in Beagle dog at 0.175 mg/kg, iv or 1 mg/kg, po administered via gavage by LC-MS/MS analysis", "type": "ADME, organism-based, Canis lupus familiaris", "details": "in vivo"}, "[8]": {"test": "Oral bioavailability in Beagle dog at 1 mg/kg administered via gavage by LC-MS/MS analysis", "type": "ADME, organism-based, Canis lupus familiaris", "details": "in vivo"}}, "data": [{"smiles": "O=C(O)CNC(=O)c1c(O)c2c(n(Cc3ccc(C(F)(F)F)cc3)c1=O)COC2", "values": [{"measurement": "clearance", "setting": "[1]", "result": 11, "unit": "mL/min/kg"}, {"measurement": "Vd", "setting": "[2]", "result": 3.1, "unit": "L/kg"}, {"measurement": "half-life", "setting": "[3]", "result": 7.3, "unit": "h"}, {"measurement": "bioavailability", "setting": "[4]", "result": 39, "unit": "%"}, {"measurement": "clearance", "setting": "[5]", "result": 17, "unit": "mL/min/kg"}, {"measurement": "Vd", "setting": "[6]", "result": 5.6, "unit": "L/kg"}, {"measurement": "half-life", "setting": "[7]", "result": 6.2, "unit": "h"}, {"measurement": "bioavailability", "setting": "[8]", "result": 25, "unit": "%"}]}]}
